# Measurements: patent US5510332A, “Process to inhibit binding of the integrin α4 62 1 to VCAM-1 or fibronectin and linear peptides therefor” (priority 1994, dated 1996)
# Where a SMILES comes first, the peptide text is derived from it. Where no end group is shown, it is not given here.
# Experiments:
# [1] = molecular target: T1, binding of α4 β1 integrin to VCAM-1 (Homo sapiens, UniProt P05556+P13612); test: Cell-protein assay: calcein-labelled Ramos cells binding to VCAM-mouse IgG fusion protein on magnetic beads; assay type: cell-based; settings: for peptide concentration at which binding of α4 β1 to VCAM-1 is significantly inhibited: less than about 100, assay format not stated
# T1 construct: endogenous in cells; host or cells: Ramos (human B-cell line) for endogenous α4β1; the VCAM-mouse IgG fusion was made in house, secreted from transfected COS cells and captured on goat anti-mouse IgG Dynal beads
# T1 sequence (P13612 34-1032): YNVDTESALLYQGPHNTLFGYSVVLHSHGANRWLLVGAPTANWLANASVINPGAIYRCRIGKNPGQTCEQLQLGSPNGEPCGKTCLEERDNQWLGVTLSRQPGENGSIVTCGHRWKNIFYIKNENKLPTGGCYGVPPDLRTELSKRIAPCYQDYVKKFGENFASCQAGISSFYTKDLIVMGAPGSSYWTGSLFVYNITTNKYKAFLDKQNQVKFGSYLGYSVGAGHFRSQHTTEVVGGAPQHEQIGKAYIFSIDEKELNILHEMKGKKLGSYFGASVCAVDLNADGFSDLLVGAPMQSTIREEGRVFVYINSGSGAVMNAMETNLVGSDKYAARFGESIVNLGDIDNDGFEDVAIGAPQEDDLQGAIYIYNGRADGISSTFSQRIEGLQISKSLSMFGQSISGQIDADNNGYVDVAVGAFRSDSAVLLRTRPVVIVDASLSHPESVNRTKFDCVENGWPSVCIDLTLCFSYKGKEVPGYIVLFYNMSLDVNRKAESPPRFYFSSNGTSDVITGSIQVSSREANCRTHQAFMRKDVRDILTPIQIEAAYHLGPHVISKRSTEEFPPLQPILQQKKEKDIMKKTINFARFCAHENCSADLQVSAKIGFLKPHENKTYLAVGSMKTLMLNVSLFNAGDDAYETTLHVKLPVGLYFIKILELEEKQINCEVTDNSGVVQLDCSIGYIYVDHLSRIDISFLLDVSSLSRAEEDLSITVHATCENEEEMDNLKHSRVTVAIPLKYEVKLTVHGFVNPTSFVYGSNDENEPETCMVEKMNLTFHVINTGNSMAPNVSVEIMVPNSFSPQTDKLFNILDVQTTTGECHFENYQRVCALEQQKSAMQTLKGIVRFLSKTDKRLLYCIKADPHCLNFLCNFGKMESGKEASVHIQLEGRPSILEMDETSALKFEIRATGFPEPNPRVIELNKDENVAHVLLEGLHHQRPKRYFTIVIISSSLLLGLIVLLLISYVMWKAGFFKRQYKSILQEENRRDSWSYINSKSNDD
# T1 sequence (P05556 21-798): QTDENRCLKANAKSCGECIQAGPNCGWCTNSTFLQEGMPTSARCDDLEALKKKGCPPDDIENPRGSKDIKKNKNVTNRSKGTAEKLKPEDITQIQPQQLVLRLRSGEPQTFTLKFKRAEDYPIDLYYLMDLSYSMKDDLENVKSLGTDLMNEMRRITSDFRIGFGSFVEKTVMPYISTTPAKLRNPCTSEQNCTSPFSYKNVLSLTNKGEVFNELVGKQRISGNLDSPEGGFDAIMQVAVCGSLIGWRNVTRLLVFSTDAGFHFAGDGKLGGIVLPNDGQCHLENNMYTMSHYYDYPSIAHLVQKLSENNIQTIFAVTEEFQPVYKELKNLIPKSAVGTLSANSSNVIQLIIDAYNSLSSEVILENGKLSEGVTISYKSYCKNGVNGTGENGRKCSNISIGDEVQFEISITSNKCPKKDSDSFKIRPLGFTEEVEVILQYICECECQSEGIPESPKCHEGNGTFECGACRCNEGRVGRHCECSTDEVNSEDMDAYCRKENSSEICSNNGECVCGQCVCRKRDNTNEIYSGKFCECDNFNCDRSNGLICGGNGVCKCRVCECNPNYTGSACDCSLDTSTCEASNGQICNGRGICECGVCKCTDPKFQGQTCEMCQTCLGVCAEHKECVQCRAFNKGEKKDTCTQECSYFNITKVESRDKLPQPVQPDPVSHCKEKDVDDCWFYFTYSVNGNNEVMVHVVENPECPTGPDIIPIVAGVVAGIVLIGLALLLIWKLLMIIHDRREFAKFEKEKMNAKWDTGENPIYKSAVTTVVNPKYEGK
# From the text: The VCAM-1 binding assays involved assessing the ability of cells that express α4 β1 to bind cells expressing VCAM (cell-cell assay) or to bind purified VCAM protein (cell-protein assay). The integrin-expressing cell types used in these assays included the human B-cell line, Ramos, and the human promyelocytic line, HL-60. The cell-cell assay was used to compare the relative potency of peptides at a single dose. The cell-protein assay was used to generate dose response curves and determine IC50 values.
# An expression vector was designed such that a region of VCAM known to bind the integrin was-expressed as a fusion protein with mouse IgG. A cDNA containing the two N-terminal domains of human VCAM was generated by the polymerase chain reaction (PCR) from a full length VCAM cDNA. Similarly, a cDNA containing the hinge, CH2 and CH3 regions of mouse IgG2A was amplified by PCR from cDNA made from total RNA isolated from the hybridoma cell line 402C10. The VCAM cDNA was ligated to the mouse IgG cDNA and cloned into a mammalian expression vector. […] The media was collected and active protein was purified by immunoprecipitation using Dynal magnetic polystyrene beads coated with goat anti-mouse IgG. Following immunoprecipitation, the beads bound Ramos cells that expressed the integrin α4 β1.
# Ramos cells were fluorescently labeled with calcein AM (Molecular Probes) and resuspended in 1 ml of binding buffer (Hanks' balanced salt solution, pH 7.4, 1.0 mM CaCl2, 1.0 mM MgCl2 and 1.0 mM MnCl2). The beads (10 μl, 4×10^6 beads/ml) were placed in wells of a 96-well microtiter dish with 10 μl of peptide at various concentrations. The beads were incubated with 10 μl of labeled cells (10^7 cells/ml) for 10 min at room temperature. Following immobilization of the beads onto the plastic with a magnet, unbound cells were removed by washing three times with binding buffer. The remaining bound cells were lysed in 50 mM Tris, pH 7.4, 5.0 mM EDTA, 1.0% NP-40 and quantitated by fluorimetry using a Millipore Cytofluor 2350 fluorimeter. Dose response curves were calculated and IC50 values determined. Peptides having the amino acid residue sequences of SEQ ID NOs:8-102 were tested for their ability to inhibit the binding of α4 β1 integrin to VCAM-1.
# [2] = molecular target: T2, binding of the integrin α4 β1 to VCAM (Homo sapiens, UniProt P05556+P13612); test: Cell-cell assay: 35S-labelled Ramos cells binding to VCAM expressing CHO cells; assay type: cell-based; settings: single concentration at which SEQ ID NO:9 gives approximately 50% inhibition of adhesion; SEQ ID NO:9 = 1.00; >2.00 indicates little or no inhibition of VCAM-α4 β1 binding
# T2 construct: endogenous in cells; host or cells: Ramos (human B-cell line) for endogenous α4β1; CHO cells stably transfected with human VCAM cDNA for the counter-receptor
# T2 sequence (P13612 34-1032): as the sequence (P13612 34-1032) above
# T2 sequence (P05556 21-798): as the sequence (P05556 21-798) above
# From the text: The VCAM-1 binding assays involved assessing the ability of cells that express α4 β1 to bind cells expressing VCAM (cell-cell assay) or to bind purified VCAM protein (cell-protein assay). The integrin-expressing cell types used in these assays included the human B-cell line, Ramos, and the human promyelocytic line, HL-60. The cell-cell assay was used to compare the relative potency of peptides at a single dose. The cell-protein assay was used to generate dose response curves and determine IC50 values. A human VCAM cDNA was amplified by the polymerase chain reaction (PCR) from cDNA reverse transcribed from RNA isolated from human umbilical vein endothelial cells. The VCAM cDNA was ligated into a mammalian expression vector and electroporated into chinese hamster ovary (CHO) cells. Cells were grown in G418 selective media and clones expressing high levels of VCAM were selected by FACS analysis. VCAM expressing CHO cells and nontransfected CHO cells were plated in 48 well cluster dishes at a density of 50,000 cells/well 24 hour prior to assay. The dishes were washed with binding buffer (DMEM, 1% BSA, 1.0 mM MnCl2, 0.02% sodium azide, pH 7.4) immediately prior to assay. […] Unbound cells were removed by washing with binding buffer and the remaining bound cells were lysed with 50 mM Tris, pH 8.0, 150 mM NaCl, 1% SDS and transferred to scintillation vials for quantitation.
peptide concentration at which binding of α4 β1 to VCAM-1 is significantly inhibited [1],relative quantity of adhered cells in relationship to peptide SEQ ID NO:9 [2],IC50 ([1]; independent cell-protein based assays),Compound
less than 100 μM,,,"CC(C)C[C@H](NC(=O)[C@@H](N)Cc1ccccc1)C(=O)N[C@@H](CC(=O)O)C(=O)N[C@H](C(N)=O)C(C)C [SEQ ID NO:25, Phe-Leu-Asp-Val-amide] (H-FLDV-NH2)"
,1.00,30 µM,"GPEWLDVP-NH2 [SEQ ID NO:9, Gly-Pro-Glu-Trp-Leu-Asp-Val-Pro-amide]"
less than 100 μM,,,"EWLDV-NH2 [SEQ ID NO:13, Glu-Trp-Leu-Asp-Val-amide]"
less than 100 μM,,,"EWLDV-OH [SEQ ID NO:14, Glu-Trp-Leu-Asp-Val-acid]"
